Where two headings read alike, the source gives them in different places.
Tests used:
Format in all cases: cell-based, human
[1] = system: phosphorylated ERK in MIA PaCa2 cells with Kras G12C mutation; assay: p-ERK HTRF assay for cells (Test Example 2); details: MIA PaCa2 cells, 2 hours with compound, read-out: p-ERK IC50
Method: MIA PaCa2 was a human pancreatic carcinoma cell line with Kras G12C mutation, which was cultured in a DMEM with 10% FBS and 2.5% Horse serum. Cells in logarithmic growth phase were detached with trypsin and EDTA, collected and counted, and 2.5E4 cells were seeded to a 96-well cell culture plate and cultured overnight. 1000× stock solutions of compounds at a concentration gradient of 3.16 were prepared by using DMSO, and diluted 200 times by the medium into 5× stock solutions of compounds. On the day after cell seeding, 5× stock solution of a compound was added to each well of cell culture plate, with a final concentration being 1× and a DMSO content of 0.1%. DMSO was used as the control. The residual culture was removed after culturing for 2 hours with the compound. To each well, 50 ul of cell lysis buffer was added and mixed uniformly and incubation for 30 minutes. Subsequently, 16 ul of mixed solution was transferred to a 96-well plate with white unclear bottom, and 16 ul of cell lysis buffer was added to the blank control group. After the completion of transfer, 4 ul of p-ERK HTRF antibody mixture was added to each well, and a value of fluorescence intensity was read after incubation for 4 hours. The inhibition rate (IR) of the compound was calculated by the following equation: IR (%)=(RLU control-RLU compound)/(RLU control−RLU blank)×100%. The value of IC50 was calculated by fitting a gradiently diluted concentration of the compound and the corresponding cell proliferation inhibition rate using a Prism 8 four-parameter method.

[2] = system: NCI-H358 cells with Kras G12C mutation; assay: Cell proliferation inhibition experiment, 3D spheroid, CellTiter-Glo (Test Example 1); details: 5 days
Method: (§1) NCI-H358 was a human NSCLC cell line with Kras G12C mutation, which was cultured in a RPMI-1640 medium with 10% fetal bovine serum (FBS). A549 was a human lung adenocarcinoma cell line with Kras G12S mutation, which was cultured in an F-12K medium with 10% FBS. Cells in logarithmic growth phase were detached with trypsin and EDTA, collected and counted, and H358 was regulated to 1.8E4 cells/ml by using an RPMI-1640 medium with 2% FBS, while A549 was regulated to 8.9E3 cells/ml with an F-12K medium containing 2% FBS. 800 (45 μl) H358 cells and 400 (45 μl) A549 cells were seeded to 384-well spheroid plates, respectively, and cultured overnight to establish 3D cell models. 1000× stock solutions of compounds at a concentration gradient of 3.16 were prepared by using DMSO, and diluted 100 times by the medium with 2% FBS into 10× stock solutions of compounds. On the day after cell seeding, 5 μl of 10× stock solution of a compound was added to each well of cell culture plate, with a final concentration being 1× and a DMSO content of 0.1%. DMSO was used as the control, and the medium with 2% FBS was used as blank control group. After 5 days of cell culture with the compound, 25 μl of CellTiter-Glo working solution was added to each well, and mixed uniformly at 400 rpm and incubation for 30 minutes. After standing at room temperature for 30 minutes, 40 μl of mixed solution was transferred to a 384-well plate with white clear bottom. A value of luminescence was then read, and a cell proliferation inhibition rate (IR) (%)=(RLU control-RLU compound)/(RLU control−RLU blank)×100%. The value of IC50 was calculated by fitting a gradiently diluted concentration of the compound and the corresponding cell proliferation inhibition rate using a Prism 6 four-parameter method.

[3] = system: MIA PaCa-2 cells with Kras G12C mutation; assay: Cell proliferation inhibition experiment, 3D spheroid, CellTiter-Glo (Test Example 3); details: Homo sapiens, MIA PaCa-2, 120 h, 5 days, read-out: MIA-PaCa2 IC50
Method: MIA PaCa-2 was a human pancreatic carcinoma cell line with Kras G12C mutation, which was cultured in a DMEM with 10% FBS and 2.5% Horse serum. A549 was a human lung adenocarcinoma cell line with Kras G12S mutation, which was cultured in an F-12K medium with 10% FBS. Cells in logarithmic growth phase were detached with trypsin and EDTA, collected and counted, and 200 MIA PaCa-2 cells and 400 A549 cells were seeded to 384-well spheroid plates, respectively, and cultured overnight to establish 3D cell models. 1000× stock solutions of compounds at a concentration gradient of 3.16 were prepared by using DMSO, and diluted 100 times by the medium into 10× stock solutions of compounds. On the day after cell seeding, 10× stock solution of a compound was added to each well of cell culture plate, with a final concentration being 1× and a DMSO content of 0.1%. DMSO was used as the control, and the medium was used as the blank. After 5 days of cell culture with the compound, 30 μl of CellTiter-Glo working solution was added to each well, and mixed uniformly and incubation for 30 minutes. After standing at room temperature for 30 minutes, 40 μl of mixed solution was transferred to a 384-well plate with white unclear bottom. A value of luminescence intensity was then read, and a cell proliferation inhibition rate (IR) (%)=(RLU control−RLU compound)/(RLU control−RLU blank)×100%. The value of IC50 was calculated by fitting a gradiently diluted concentration of the compound and the corresponding cell proliferation inhibition rate using an XLFit four-parameter method.

[4] = system: A549 cells with Kras G12S mutation; assay: Cell proliferation inhibition experiment, 3D spheroid, CellTiter-Glo (Test Example 1); details: 5 days
Method: as §1

| SMILES | IC50 ([1]; Homo sapiens, MIA PaCa-2, 2 h) [nM] | IC50 ([2]; Homo sapiens, NCI-H358, 120 h) [nM] | IC50 [3] [nM] | IC50 ([4]; Homo sapiens, A549, 120 h) [nM] | IC50 [4] [nM] | IC50 [2] [nM] | IC50 [1] [nM] |
| --- | --- | --- | --- | --- | --- | --- | --- |
| C=CC(=O)N1CCN2c3c(c(=O)n(-c4c(C)ccnc4C(C)C)c4nc(-c5c(O)cccc5F)c(F)cc34)N(C)C(=O)[C@H]2C1 [Compound Z9, (4aR)-3-acryloyl-11-fluoro-10-(2-fluoro-6-hydroxyphenyl)-8-(2-isopropyl-4-methylpyridin-3-yl)-6-methyl-2,3,4,4a,6,8-hexahydro-1H-pyrazino[1′,2′:4,5]pyrazino[2,3-c][1,8,8]naphthyridin-5,7-dione] | 187 | 32 | 74 | – | – | – | – |
| C=CC(=O)N1CC2C(=O)N(C)c3c(c4cc(F)c(-c5c(O)cccc5F)nc4n(-c4c(C(F)(F)F)ccnc4C(C)C)c3=O)N2C[C@H]1C (single isomer, unassigned) [Compound Z49-1] | 114 | – | 12 | – | 9420 | 9 | – |
| [2H]C([2H])([2H])N1C(=O)[C@H]2CN(C(=O)C=C)CCN2c2c1c(=O)n(-c1c(C(C)C)ncnc1C(C)C)c1c(F)c(-c3c(O)cccc3F)c(Cl)cc21 (atropisomer, axis not shown; (aR)) [Compound Z39-1, (4aR) -3-acryloyl-11-chloro-8-(4,6-diisopropylpyrimidin-5-yl)-9-fluoro-10-(2-fluoro-6-hydroxyphenyl)-6-(deuteromethyl-d3)-2,3,4,4a,6,8-hexahydro-1H-pyrazino[1′,2′,5]pyrazino[2,3-c]quinolin-5,7-dione] | 11 | – | 1 | – | > 30000 | 0.6 | – |
| C=CC(=O)N1CCN2c3c(cnc4c3CCN(c3c(C)ccc5[nH]ncc35)C4)OC[C@H]2C1 [Compound Z2, (R)-1-(3-(5-methyl-1H-indazol-4-yl)-1,2,3,4,8a,9,11,12-octahydropyrazino[1′,2′:4,5][1,4]oxazino[2,3-c][1,7]naphthyridin-10(8H)-yl)propyl-2-en-1-one] | – | – | – | – | > 10000 | 773 | – |
| C=CC(=O)N1CC2C(=O)N(C)c3c(c4cc(F)c(-c5c(O)cccc5F)nc4n(-c4c(C(F)(F)F)ccnc4C(C)C)c3=O)N2C[C@H]1C (single isomer, unassigned) [Compound Z49-2] | – | – | – | – | > 30000 | 44 | – |
| C=CC(=O)N1CCN2c3c(c(=O)n(-c4c(C)ccnc4C(C)C)c4nc(-c5c(O)cccc5F)c(F)cc34)OC[C@H]2C1 (single isomer, unassigned) [Compound Z1-2] | – | – | – | 16500 | – | 198 | – |
| C=CC(=O)N1CCN2c3c(c(=O)n(-c4c(C)ccnc4C(C)C)c4nc(-c5c(O)cccc5F)c(F)cc34)N(CC)C(=O)[C@H]2C1 (single isomer, unassigned) [Compound Z30-1] | – | – | – | – | > 30000 | 804 | – |
| C=CC(=O)N1C[C@@H]2C(=O)Nc3c(c4cc(F)c(-c5c(O)cccc5F)nc4n(-c4c(C)ccnc4C(C)C)c3=O)N2C[C@H]1C (single isomer, unassigned) [Compound Z35-2] | – | – | – | – | > 30000 | 6 | 49 |
| C=CC(=O)N1C[C@@H]2C(=O)Nc3c(c4cc(F)c(-c5c(O)cccc5F)nc4n(-c4c(C)ccnc4C(C)C)c3=O)N2C[C@H]1C (single isomer, unassigned) [Compound Z35-1] | – | – | – | – | > 30000 | 37 | 249 |

Second part, led by results:

| IC50 ([1]; Homo sapiens, MIA PaCa-2, 2 h) [nM] | IC50 ([2]; Homo sapiens, NCI-H358, 120 h) [nM] | IC50 [3] [nM] | IC50 ([4]; Homo sapiens, A549, 120 h) [nM] | SMILES | IC50 [4] [nM] | IC50 [2] [nM] | IC50 [1] [nM] |
| --- | --- | --- | --- | --- | --- | --- | --- |
| 122 | 13 | 48 | > 30000 | C=CC(=O)N1C[C@@H]2C(=O)Nc3c(c4cc(F)c(-c5c(O)cccc5F)nc4n(-c4c(C(C)C)ncnc4C(C)C)c3=O)N2C[C@H]1C [Compound Z45, (2R,4aR)-3-acryloyl-8-(4,6-diisopropylpyrimidin-5-yl)-11-fluoro-10-(2-fluoro-6-hydroxyphenyl)-2-methyl-2,3,4,4a,6,8-hexahydro-1H-pyrazino[1′,2′:4,5]pyrazino[2,3-c][1,8]naphthyridin-5,7-dione] | – | – | – |
| – | 31 | 83 | > 30000 | C=CC(=O)N1C[C@@H]2C(=O)N(C)c3c(c4cc(F)c(-c5c(O)cccc5F)nc4n(-c4c(C(C)C)nn(C)c4C)c3=O)N2C[C@H]1C [Compound Z47, (2R,4aR)-3-acryloyl-11-fluoro-10-(2-fluoro-6-hydroxyphenyl)-8-(3-isopropyl-1,5-dimethyl-1H-pyrazol-4-yl)-2,6-dimethyl-2,3,4,4a,6,8-hexahydro-1H-pyrazino[1′,2′:4,5]pyrazino[2,3-c][1,8]naphthyridin-5,7-dione] | – | – | – |
| – | 90 | 234 | 16900 | C=CC(=O)N1CCN2c3c(c(=O)n(-c4c(C)ccnc4C(C)C)c4nc(-c5c(O)cccc5F)c(F)cc34)OC[C@@H]2C1 [Compound Z28, (4aS)-3-acryloyl-11-fluoro-10-(2-fluoro-6-hydroxyphenyl)-8-(2-isopropyl-4-methylpyridin-3-yl)-1,2,3,4,4a,5-hexahydropyrazino[1′,2′:4,5][1,4]oxazino[2,3-c][1,8]naphthyridin-7(8H)-one] | – | – | – |
| – | 166 | – | 21800 | C=CC(=O)N1CCN2c3c(c(=O)n(-c4c(C)ccnc4C(C)C)c4nc(-c5c(C)ccc6[nH]ncc56)c(F)cc34)OC[C@H]2C1 [Compound Z29, (4aR)-3-acryloyl-11-fluoro-8-(2-isopropyl-4-methylpyridin-3-yl)-10-(5-methyl-1H-indazol-4-yl)-1,2,3,4,4a,5-hexahydropyrazino[1′,2′:4,5][1,4]oxazino[2,3-c][1,8]naphthyridin-7(8H)-one] | – | – | – |
| 106 | – | – | – | C=CC(=O)N1CCN2c3c(c(=O)n(-c4c(C5CC5)ncnc4C4CC4)c4nc(-c5c(O)cccc5F)c(Cl)cc34)N(C)C(=O)[C@H]2C1 [Compound Z72] | – | – | – |
| – | 67 | 180 | > 30000 | C=CC(=O)N1C[C@@H]2C(=O)N(C)c3c(c4cc(F)c(-c5c(O)cccc5F)nc4n(-c4nccnc4C(C)C)c3=O)N2C[C@H]1C [Compound Z22, (2R,4aR)-3-acryloyl-11-fluoro-10-(2-fluoro-6-hydroxyphenyl)-8-(3-isopropylpyrazin-2-yl)-2,6-dimethyl-2,3,4,4a,6,8-hexahydro-1H-pyrazino[1′,2′:4,5]pyrazino[2,3-c][1,8]naphthyridin-5,7-dione] | – | – | – |
| – | 64 | 170 | > 30000 | C=CC(=O)N1CCN2c3c(c(=O)n(-c4c(C5CC5)ncnc4C4CC4)c4nc(-c5c(F)cccc5OC)c(F)cc34)N(C)C(=O)[C@H]2C1 [Compound Z32, (4aR)-3-acryloyl-11-fluoro-10-(2-fluoro-6-methoxyphenyl)-8-(4,6-bicyclopropylpyrimidin-5-yl)-6-methyl-2,3,4,4a,6,8-hexahydro-1H-pyrazino[1′,2′:4,5]pyrazino[2,3-c][1,8]naphthyridin-5,7-dione] | – | – | – |
